Test results taken from US20130040291A1, “Detection and Quantification of Cellular Stress Response Resolution Pathway Expression and Functionality and the Effects of Agents or Conditions Thereupon” (priority 2011, published 2013).

Test system: CDNR4 cells
Assay: Determination of the SRID-50% level of 6-TG (calibrated stress conditions)
Assay type: cell-based, murine
Procedure: The calibrated stress conditions and the SRID-x % level are determined ideally using parental, control, or vehicle-exposed cells. This portion of the assay requires that several variables, including cell plating density, calibrated stress conditions level, and duration of stress conditions exposure be optimized simultaneously. These variables are interdependent such that each affects the outcome of the other, thereby making this portion of the assay one of the most critical. To achieve high sensitivity for detection of assay endpoints, it is important that the maximum number of cells be evaluated; however, optimal calibrated stress conditions are achieved at relatively low cell plating densities. In addition, cell plating densities and the SKID-x % level of stress inducing agent chosen for use in the assay must be such that fewer than one positive endpoint per well occurs in the assay. Using cell survival as an example, if multiple surviving cell clones are identified in the same well(s) during an experiment, then the cell plating density must be reduced and/or the SRID-x % level must be increased so that the frequency of occurrence of surviving clones is reduced to less than one per well. Thus, optimization of these variables is necessary.
Pilot studies that evaluate a range of cell plating densities and a range of calibrated stress conditions levels for the stress inducing agent of choice are used and are applied to untreated, control or parental cells. It is advisable to use a low plating density that results in rapid expression of stress resolution pathways (within 3 to 4 days where possible), or as quickly as possible after calibrated stress conditions exposure. In spite of potentially significant differences between cells of different types from different tissues and from different species, preliminary results from the SR assay support the conclusion that the optimal plating density for many cell types falls within a predictable range. […] These values can serve as starting points for empirical determination of the optimal cell plating density for the cells of interest to be used in the assay.
After estimating the optimal cell plating density, dose response curves are generated for the calibrated stress conditions agent of interest. For experiments in which cell survival is the phenotype of interest, work with the assay completed to date supports the conclusion that calibrated stress conditions levels that reduce expression of pro-survival pathways to a level that results in survival of one or fewer clones in 50% of the wells of a 96 well plate (defined as the SRID-50%) is the optimal level for assessment of damage avoidance pro-survival pathways. Use of these levels also results in a sufficiently robust expression of damage tolerance paths to make it possible to evaluate differences or changes in expression of these pathways between cell types and/or between differing exogenous exposures. Because cell plating density and level of calibrated stress inducing agent are inter-dependent, it may be necessary to perform several pilot studies using differing cell plating densities and a range of stress-response inducing levels to find the optimal combination of use with the cell type of interest in the assay.
There are two limits associated with Poisson distribution principles that must be considered in selecting the SRID-x % level of stress inducing agent. First, stress induction levels that result in a response frequency, for the response type of interest, that is near or equal to 100% of the sites being evaluated should be avoided and the same considerations are true for stress induction levels resulting in responses frequencies near or equal to 0%. The SR assay cannot accurately quantify response frequencies near 100% or near 0%, and this limitation forms the one of the factors affecting the selection of the SRID-x % level. […]

SMILES: CCN(N=O)C(N)=O [ENU, ethylnitrosourea]
- SRID-50% of ENU-exposed cells (ENU 20 micrograms/ml 1 hour, 2 weeks earlier, 600 cells per well, stress agent 6-TG): 2.5 micrograms/ml
- reduction in the functionality of pro-survival cellular stress response pathways (ENU-exposed vs unexposed CDNR4 cells, from SRID-50% levels): 20 fold
- SRID-50% level of ENU-exposed CDNR4 cells (pre-exposure 20 micrograms ENU 1 hour, tested two weeks later, 6-TG for 4 days): 2.5 micrograms 6-TG
